One assay concerns the target T1, P2X purinoceptor 3 (Rattus norvegicus, UniProt P49654).
T1 sequence (P49654 whole entry): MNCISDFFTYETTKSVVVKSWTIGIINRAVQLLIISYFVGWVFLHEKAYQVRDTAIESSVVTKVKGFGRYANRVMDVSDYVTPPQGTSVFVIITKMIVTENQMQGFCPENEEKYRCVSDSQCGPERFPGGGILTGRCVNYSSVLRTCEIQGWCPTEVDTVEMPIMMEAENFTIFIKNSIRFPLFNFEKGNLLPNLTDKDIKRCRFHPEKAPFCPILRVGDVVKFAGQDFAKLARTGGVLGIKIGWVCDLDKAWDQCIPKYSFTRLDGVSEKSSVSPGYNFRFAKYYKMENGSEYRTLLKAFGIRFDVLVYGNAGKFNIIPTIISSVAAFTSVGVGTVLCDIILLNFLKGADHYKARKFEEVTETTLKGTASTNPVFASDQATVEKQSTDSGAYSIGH
The assay is described as follows: Antagonist activity against rat P2X3 receptor expressed in CHOK1 cells assessed as inhibition of alpha,beta-meATP-induced calcium response incubated for 20 mins by Fluo-3AM dye based FLIPR assay. The assay is classed as functional, cell-based, CHO-K1.

Assay [1] addresses T2, P2X2/P2X3 heterotrimeric receptor (Homo sapiens, UniProt P56373+Q9UBL9).
T2 sequence (Q9UBL9 whole entry): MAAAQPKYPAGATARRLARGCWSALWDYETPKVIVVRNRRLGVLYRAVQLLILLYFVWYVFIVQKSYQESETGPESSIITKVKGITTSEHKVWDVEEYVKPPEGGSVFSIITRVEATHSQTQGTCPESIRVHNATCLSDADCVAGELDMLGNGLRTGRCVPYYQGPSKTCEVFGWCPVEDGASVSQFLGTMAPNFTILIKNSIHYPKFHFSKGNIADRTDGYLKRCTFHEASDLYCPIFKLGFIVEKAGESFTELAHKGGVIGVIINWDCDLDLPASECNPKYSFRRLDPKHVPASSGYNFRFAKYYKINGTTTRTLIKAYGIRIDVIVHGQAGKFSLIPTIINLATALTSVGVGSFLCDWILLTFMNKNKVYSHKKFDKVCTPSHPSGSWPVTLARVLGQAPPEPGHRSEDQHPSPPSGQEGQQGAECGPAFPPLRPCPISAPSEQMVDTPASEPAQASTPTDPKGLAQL
T2 sequence (P56373 whole entry): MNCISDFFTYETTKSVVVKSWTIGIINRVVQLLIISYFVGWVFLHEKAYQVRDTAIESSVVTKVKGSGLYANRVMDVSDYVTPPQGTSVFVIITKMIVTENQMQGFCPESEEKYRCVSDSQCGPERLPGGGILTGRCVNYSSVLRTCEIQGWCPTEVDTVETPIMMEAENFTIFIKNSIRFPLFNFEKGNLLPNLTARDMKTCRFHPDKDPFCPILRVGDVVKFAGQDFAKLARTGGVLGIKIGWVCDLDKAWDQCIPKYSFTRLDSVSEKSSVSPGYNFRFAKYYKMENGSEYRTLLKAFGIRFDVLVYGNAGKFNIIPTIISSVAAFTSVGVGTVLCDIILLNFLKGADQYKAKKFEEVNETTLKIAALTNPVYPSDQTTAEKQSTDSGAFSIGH
Put plainly: Antagonist activity against human P2X2/3 receptor expressed in CHOK1 cells assessed as inhibition of alpha,beta-meATP-induced calcium response incubated for 20 mins by Fluo-3AM dye based FLIPR assay. The assay is classed as functional, cell-based, CHO-K1.

As to `Cc1ccc(-c2cc(C(=O)N[C@@H](C)CO)cc3c2ccn3-c2ccccc2)nc1`, the Ki on P2X purinoceptor 3 was 102 nM; in assay [1] it was 2880 nM.

For `Cc1ccc(-c2cc(C(=O)N[C@@H](C)CO)cc3c2cnn3CC(C)C)nc1`, the values for the Ki (at P2X purinoceptor 3; in assay [1]) were 288 nM and 7240 nM, respectively.

Turning to `Cc1ccc(-c2cc(C(=O)NCc3cnc(C)cn3)cc3c2ccn3-c2ccccc2)nc1`, the Ki at P2X purinoceptor 3 was 18.6 nM; in assay [1] it was 457 nM.

By Ki is commonly meant a dissociation constant, usually derived from enzyme kinetics or from competition with a known ligand.

These data come from ChEMBL document CHEMBL3714738, “Novel indole, indazole and benzimidazole arylamides as p2x3 and/or p2x2/3 antagonists” (2012).
